Test results from publication PMC4357467, “A Mouse Model of L-2-Hydroxyglutaric Aciduria, a Disorder of Metabolite Repair” (PLoS ONE, 2015).

Assays:
[1] = molecular target: T1, Lysine-α-ketoglutarate reductase (bifunctional lysine-α-ketoglutarate reductase/saccharopine dehydrogenase) (Mus musculus, UniProt Q99K67); experiment: spectrophotometric enzyme assay (NADPH), partially purified native liver enzyme; assay type: biochemical; details: 25 mM Hepes pH 8.0, 30°C, 0.15 mM NADPH, 1 mM dithiothreitol, 10 mM lysine, 2 mM α-ketoglutarate
T1 construct: gene Aass; native bifunctional enzyme, partially purified from liver (15 000 x g supernatant, Blue Trisacryl column)
T1 sequence (Q99K67 28-926): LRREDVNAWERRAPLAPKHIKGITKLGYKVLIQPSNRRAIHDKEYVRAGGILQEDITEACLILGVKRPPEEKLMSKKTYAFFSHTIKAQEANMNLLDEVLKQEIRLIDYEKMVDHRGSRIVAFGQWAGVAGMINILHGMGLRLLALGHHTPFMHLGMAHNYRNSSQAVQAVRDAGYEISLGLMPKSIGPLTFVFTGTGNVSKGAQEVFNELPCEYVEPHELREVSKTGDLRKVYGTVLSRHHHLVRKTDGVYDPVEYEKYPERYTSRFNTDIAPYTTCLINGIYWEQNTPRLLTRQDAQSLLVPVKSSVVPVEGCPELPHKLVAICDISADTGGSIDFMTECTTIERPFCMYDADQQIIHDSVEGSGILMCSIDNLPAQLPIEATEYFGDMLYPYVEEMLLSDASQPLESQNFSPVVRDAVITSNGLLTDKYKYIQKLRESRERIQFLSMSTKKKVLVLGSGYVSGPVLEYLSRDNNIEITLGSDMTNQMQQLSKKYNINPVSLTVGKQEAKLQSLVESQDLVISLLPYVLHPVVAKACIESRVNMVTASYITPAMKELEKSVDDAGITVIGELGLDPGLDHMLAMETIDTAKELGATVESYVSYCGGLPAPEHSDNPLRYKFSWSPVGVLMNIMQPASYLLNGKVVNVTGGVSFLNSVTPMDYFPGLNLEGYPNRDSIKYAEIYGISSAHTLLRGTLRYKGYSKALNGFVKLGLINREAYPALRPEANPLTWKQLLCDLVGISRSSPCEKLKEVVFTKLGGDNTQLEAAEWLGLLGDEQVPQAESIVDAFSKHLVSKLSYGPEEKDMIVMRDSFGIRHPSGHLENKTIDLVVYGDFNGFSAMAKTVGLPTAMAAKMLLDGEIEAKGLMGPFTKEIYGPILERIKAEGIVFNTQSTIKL

[2] = molecular target: T1, Lysine-α-ketoglutarate reductase (bifunctional lysine-α-ketoglutarate reductase/saccharopine dehydrogenase); experiment: as above; assay type: biochemical

## O=C(O)CC[C@@H](O)C(=O)O [D-2-hydroxyglutarate]
[1]
  spectrophotometric enzyme assay (NADPH), partially purified native liver enzyme: almost no inhibition was observed with D-2-hydroxyglutarate

## O=C(O)CC[C@H](O)C(=O)O [L-2-hydroxyglutarate]
[2]
  Ki: 700 µM
